Data reported in ChEMBL document CHEMBL3612057, “Discovery of indolizines containing triazine moiety as new leads for the development of antitumoral agents targeting mitotic events” (2015).
The source made the active and inactive calls. The rule behind the calls is not given here.

How the values were obtained:
Ovis aries = species: Ovis aries; test: Inhibition of sheep tubulin polymerization at 100 uM by fluorescence assay
HL-60(TB) = test: Cytotoxicity against human HL-60(TB) cells assessed as growth inhibition at 10 uM after 24 hrs by SRB assay; format: functional
NCI-H226 = test: Cytotoxicity against human NCI-H226 cells assessed as growth inhibition at 10 uM after 24 hrs by SRB assay; format: functional
786-0 = test: Cytotoxicity against human 786-0 cells assessed as growth inhibition at 10 uM after 24 hrs by SRB assay; format: functional
RPMI-8226 = test: Cytotoxicity against human RPMI8226 cells assessed as growth inhibition at 10 uM after 24 hrs by SRB assay; format: functional
UACC-62 = test: Cytotoxicity against human UACC62 cells assessed as growth inhibition at 10 uM after 24 hrs by SRB assay; format: functional; details: UACC-62, 24 h, read-out: GI
UACC-257 = test: Cytotoxicity against human UACC257 cells assessed as growth inhibition at 10 uM after 24 hrs by SRB assay; format: functional
OVCAR-8 = test: Cytotoxicity against human OVCAR8 cells assessed as growth inhibition at 10 uM after 24 hrs by SRB assay; format: functional; details: OVCAR-8, 24 h, read-out: GI
ACHN = test: Cytotoxicity against human ACHN cells assessed as growth inhibition at 10 uM after 24 hrs by SRB assay; format: functional; details: read-out: GI
MDA-MB-435 = test: Cytotoxicity against human MDA-MB-435 cells assessed as growth inhibition at 10 uM after 24 hrs by SRB assay; format: functional
HOP-62 = test: Cytotoxicity against human HOP62 cells assessed as growth inhibition at 10 uM after 24 hrs by SRB assay; format: functional
CCRF-CEM = test: Cytotoxicity against human CCRF-CEM cells assessed as growth inhibition at 10 uM after 24 hrs by SRB assay; format: functional
SNB-75 = test: Cytotoxicity against human SNB75 cells assessed as growth inhibition at 10 uM after 24 hrs by SRB assay; format: functional; details: SNB-75, 24 h, read-out: GI
NCI/ADR-RES = test: Cytotoxicity against human NCI/ADR-RES cells assessed as growth inhibition at 10 uM after 24 hrs by SRB assay; format: functional; details: read-out: GI
A549 = test: Cytotoxicity against human A549 cells assessed as growth inhibition at 10 uM after 24 hrs by SRB assay; format: functional; details: A549, 24 h, read-out: GI
HOP-92 = test: Cytotoxicity against human HOP92 cells assessed as growth inhibition at 10 uM after 24 hrs by SRB assay; format: functional
MDA-MB-231 = test: Cytotoxicity against human MDA-MB-231 cells assessed as growth inhibition at 10 uM after 24 hrs by SRB assay; format: functional; details: MDA-MB-231, 24 h, read-out: GI
SF-295 = test: Cytotoxicity against human SF295 cells assessed as growth inhibition at 10 uM after 24 hrs by SRB assay; format: functional; details: SF-295, 24 h, read-out: GI
K562 = test: Cytotoxicity against human K562 cells assessed as growth inhibition at 10 uM after 24 hrs by SRB assay; format: functional
SK-MEL-28 = test: Cytotoxicity against human SK-MEL-28 cells assessed as growth inhibition at 10 uM after 24 hrs by SRB assay; format: functional
CAKI-1 = test: Cytotoxicity against human CAKI-1 cells assessed as growth inhibition at 10 uM after 24 hrs by SRB assay; format: functional
Malme-3M = test: Cytotoxicity against human MALME-3M cells assessed as growth inhibition at 10 uM after 24 hrs by SRB assay; format: functional
TK-10 = test: Cytotoxicity against human TK10 cells assessed as growth inhibition at 10 uM after 24 hrs by SRB assay; format: functional
OVCAR-3 = test: Cytotoxicity against human OVCAR3 cells assessed as growth inhibition at 10 uM after 24 hrs by SRB assay; format: functional
SK-MEL-5 = test: Cytotoxicity against human SK-MEL-5 cells assessed as growth inhibition at 10 uM after 24 hrs by SRB assay; format: functional
SF-539 = test: Cytotoxicity against human SF539 cells assessed as growth inhibition at 10 uM after 24 hrs by SRB assay; format: functional
PC-3 = test: Cytotoxicity against human PC3 cells assessed as growth inhibition at 10 uM after 24 hrs by SRB assay; format: functional
SR = test: Cytotoxicity against human SR cells assessed as growth inhibition at 10 uM after 24 hrs by SRB assay; format: functional
RXF 393 = test: Cytotoxicity against human RXF393 cells assessed as growth inhibition at 10 uM after 24 hrs by SRB assay; format: functional; details: RXF 393, 24 h, read-out: GI
SK-OV-3 = test: Cytotoxicity against human SKOV3 cells assessed as growth inhibition at 10 uM after 24 hrs by SRB assay; format: functional
HCT-116 = test: Cytotoxicity against human HCT116 cells assessed as growth inhibition at 10 uM after 24 hrs by SRB assay; format: functional
[1] = Cytotoxicity against human Hs578T cells assessed as growth inhibition at 10 uM after 24 hrs by SRB assay; format: functional; details: Hs-578T, read-out: GI
NCI-H460 = test: Cytotoxicity against human NCI-H460 cells assessed as growth inhibition at 10 uM after 24 hrs by SRB assay; format: functional
MCF7 = test: Cytotoxicity against human MCF7 cells assessed as growth inhibition at 10 uM after 24 hrs by SRB assay; format: functional
OVCAR-4 = test: Cytotoxicity against human OVCAR4 cells assessed as growth inhibition at 10 uM after 24 hrs by SRB assay; format: functional
U-251 = test: Cytotoxicity against human U251 cells assessed as growth inhibition at 10 uM after 24 hrs by SRB assay; format: functional
NCI-H522 = test: Cytotoxicity against human NCI-H522 cells assessed as growth inhibition at 10 uM after 24 hrs by SRB assay; format: functional; details: NCI-H522, 24 h, read-out: GI
T47D = test: Cytotoxicity against human T47D cells assessed as growth inhibition at 10 uM after 24 hrs by SRB assay; format: functional

With `Cn1c(-c2cc(C(=O)c3ccc(Br)cc3)n3ccccc23)nc(=O)[nH]c1=O` as the compound, how does the inhibition (Ovis aries) read?
Its inhibition is “inactive”.

With `COc1nc(OC)nc(-c2cc(C(=O)c3ccc(C#N)cc3)n3ccccc23)n1` as the compound, how does the inhibition (Ovis aries) read?
The inhibition was “inactive”.

Which “growth inhibition (GI)” value (HL-60(TB)) does the source give for `COc1nc(OC)nc(-c2cc(C(=O)c3cc(OC)c(OC)c(OC)c3)n3c(-c4ccccc4)cccc23)n1` here?
The value was “inactive”.

What about the “growth inhibition (GI)” value (NCI-H226) of the same compound?
The value was “inactive”.

What about the “growth inhibition (GI)” value (786-0) of the same compound?
Its value is “inactive”.

What about the inhibition of growth at 10 µM (RPMI-8226; RPMI-8226, 24 h, read-out: GI) of the same compound?
The inhibition of growth at 10 µM was 52%.

And the inhibition of growth at 10 µM (UACC-62)?
The inhibition of growth at 10 µM was 39%.

What about the “growth inhibition (GI)” value (UACC-257) of the same compound?
The value was “inactive”.

And the inhibition of growth at 10 µM (OVCAR-8)?
The inhibition of growth at 10 µM was 41%.

And the inhibition of growth at 10 µM (ACHN)?
The inhibition of growth at 10 µM was 30%.

What about the “growth inhibition (GI)” value (MDA-MB-435) of the same compound?
Its value is “inactive”.

What about the “growth inhibition (GI)” value (HOP-62) of the same compound?
The value was “inactive”.

What about the inhibition of growth at 10 µM (CCRF-CEM; read-out: GI) of the same compound?
The inhibition of growth at 10 µM was 62%.

And the inhibition of growth at 10 µM (SNB-75)?
The inhibition of growth at 10 µM was 23%.

And the inhibition of growth at 10 µM (NCI/ADR-RES)?
Its inhibition of growth at 10 µM is 38%.

What about the inhibition of growth at 10 µM (A549) of the same compound?
The inhibition of growth at 10 µM was 28%.

And the “growth inhibition (GI)” value (HOP-92)?
Its value is “inactive”.

And the inhibition of growth at 10 µM (MDA-MB-231)?
The inhibition of growth at 10 µM was 23%.

And the inhibition of growth at 10 µM (SF-295)?
Its inhibition of growth at 10 µM is 40%.

What about the inhibition of growth at 10 µM (K562; K562, 24 h, read-out: GI) of the same compound?
The inhibition of growth at 10 µM was 29%.

What about the “growth inhibition (GI)” value (SK-MEL-28) of the same compound?
Its value is “inactive”.

What about the inhibition of growth at 10 µM (CAKI-1; CAKI-1, 24 h, read-out: GI) of the same compound?
The inhibition of growth at 10 µM was 43%.

And the “growth inhibition (GI)” value (Malme-3M)?
Its value is “inactive”.

What about the “growth inhibition (GI)” value (TK-10) of the same compound?
The value was “inactive”.

And the inhibition of growth at 10 µM (OVCAR-3; OVCAR-3, 24 h, read-out: GI)?
The inhibition of growth at 10 µM was 28%.

And the inhibition of growth at 10 µM (SK-MEL-5; SK-MEL-5, 24 h, read-out: GI)?
Its inhibition of growth at 10 µM is 67%.

What about the “growth inhibition (GI)” value (SF-539) of the same compound?
The value was “inactive”.

And the inhibition of growth at 10 µM (PC-3; PC-3, 24 h, read-out: GI)?
Its inhibition of growth at 10 µM is 37%.

What about the inhibition (Ovis aries) of the same compound?
Its inhibition is “inactive”.

What about the inhibition of growth at 10 µM (SR; read-out: GI) of the same compound?
The inhibition of growth at 10 µM was 29%.

What about the inhibition of growth at 10 µM (RXF 393) of the same compound?
Its inhibition of growth at 10 µM is 15%.

And the “growth inhibition (GI)” value (SK-OV-3)?
The value was “inactive”.

And the “growth inhibition (GI)” value (HCT-116)?
The value was “inactive”.

And the inhibition of growth at 10 µM [1]?
The inhibition of growth at 10 µM was 14%.

And the inhibition of growth at 10 µM (NCI-H460; NCI-H460, 24 h, read-out: GI)?
The inhibition of growth at 10 µM was 14%.

And the inhibition of growth at 10 µM (MCF7; MCF7, 24 h, read-out: GI)?
Its inhibition of growth at 10 µM is 22%.

And the inhibition of growth at 10 µM (OVCAR-4; OVCAR-4, 24 h, read-out: GI)?
Its inhibition of growth at 10 µM is 18%.

What about the “growth inhibition (GI)” value (U-251) of the same compound?
The value was “inactive”.

And the inhibition of growth at 10 µM (NCI-H522)?
Its inhibition of growth at 10 µM is 11%.

What about the inhibition of growth at 10 µM (T47D; read-out: GI) of the same compound?
The inhibition of growth at 10 µM was 32%.

For `COc1nc(OC)nc(-c2cc(C(=O)c3ccc(Br)cc3)n3cc(C)cc(C)c23)n1`, which inhibition (Ovis aries) is on record?
Its inhibition is “inactive”.

Which results are given for `COc1nc(OC)nc(-c2cc(C(=O)c3ccc(C)cc3)n3ccc(C#N)cc23)n1`?
growth inhibition (GI) (HL-60(TB)): inactive; growth inhibition (GI) (NCI-H226): inactive; inhibition of growth at 10 µM (786-0; 786-0, 24 h, read-out: GI): 40%; growth inhibition (GI) (RPMI-8226): inactive; inhibition of growth at 10 µM (UACC-62): 14%; inhibition of growth at 10 µM (UACC-257; UACC-257, 24 h, read-out: GI): 16%; inhibition of growth at 10 µM (OVCAR-8): 14%; inhibition of growth at 10 µM (ACHN): 15%; growth inhibition (GI) (MDA-MB-435): inactive; inhibition of growth at 10 µM (HOP-62; HOP-62, 24 h, read-out: GI): 60%; growth inhibition (GI) (CCRF-CEM): inactive; inhibition of growth at 10 µM (SNB-75): -14%; inhibition of growth at 10 µM (A549): 11%; inhibition of growth at 10 µM (HOP-92; HOP-92, 24 h, read-out: GI): 11%; inhibition of growth at 10 µM (MDA-MB-231): 39%; inhibition of growth at 10 µM (SF-295): 47%; growth inhibition (GI) (K562): inactive; growth inhibition (GI) (SK-MEL-28): inactive; growth inhibition (GI) (CAKI-1): inactive; inhibition of growth at 10 µM (Malme-3M; read-out: GI): 17%; growth inhibition (GI) (TK-10): inactive; growth inhibition (GI) (OVCAR-3): inactive; growth inhibition (GI) (SK-MEL-5): inactive; inhibition of growth at 10 µM (SF-539; SF-539, 24 h, read-out: GI): 42%; growth inhibition (GI) (PC-3): inactive; inhibition (Ovis aries): inactive; growth inhibition (GI) (SR): inactive; inhibition of growth at 10 µM (RXF 393): 52%; inhibition of growth at 10 µM (SK-OV-3; SK-OV-3, 24 h, read-out: GI): 42%; growth inhibition (GI) (HCT-116): inactive; inhibition of growth at 10 µM [1]: 42%; growth inhibition (GI) (NCI-H460): inactive; growth inhibition (GI) (MCF7): inactive; growth inhibition (GI) (OVCAR-4): inactive; inhibition of growth at 10 µM (U-251; U-251, 24 h, read-out: GI): 56%; inhibition of growth at 10 µM (NCI-H522): 21%; growth inhibition (GI) (T47D): inactive
